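In this assay, cells in 96-well plates receive the compound at five concentrations for 48 hours. Endpoints are linearly interpolated between the surrounding concentrations. TGI is the concentration that stops growth completely.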
Columns and labels:
Experiment in all cases: growth of human tumour cells (NCI), 48 h
786-0 renal = system: 786-0 renal
A498 renal = system: A498 renal
A549 NSCLC = system: A549 NSCLC
ACHN renal = system: ACHN renal
BT-549 breast = system: BT-549 breast
CAKI-1 renal = system: CAKI-1 renal
COLO 205 colon = system: COLO 205 colon
DU-145 prostate = system: DU-145 prostate
EKVX NSCLC = system: EKVX NSCLC
HCC-2998 colon = system: HCC-2998 colon
HCT-116 colon = system: HCT-116 colon
HCT-15 colon = system: HCT-15 colon
HOP-62 NSCLC = system: HOP-62 NSCLC
HS 578T breast = system: HS 578T breast
K-562 leukemia = system: K-562 leukemia
KM12 colon = system: KM12 colon
LOX IMVI melanoma = system: LOX IMVI melanoma
M14 melanoma = system: M14 melanoma
MCF7 breast = system: MCF7 breast
MDA-MB-231 breast = system: MDA-MB-231 breast
MDA-MB-435 = system: MDA-MB-435
MDA-N = system: MDA-N
MOLT-4 leukemia = system: MOLT-4 leukemia
NCI-H226 lung = system: NCI-H226 lung
NCI-H23 lung = system: NCI-H23 lung
NCI-H460 lung = system: NCI-H460 lung
NCI/ADR-RES ovarian = system: NCI/ADR-RES ovarian
OVCAR-3 ovarian = system: OVCAR-3 ovarian
OVCAR-4 ovarian = system: OVCAR-4 ovarian
OVCAR-5 ovarian = system: OVCAR-5 ovarian
OVCAR-8 ovarian = system: OVCAR-8 ovarian
PC-3 prostate = system: PC-3 prostate
RPMI-8226 leukemia = system: RPMI-8226 leukemia
RXF 393 renal = system: RXF 393 renal
SF-268 CNS = system: SF-268 CNS
SF-295 CNS = system: SF-295 CNS
SK-MEL-2 melanoma = system: SK-MEL-2 melanoma
SK-MEL-28 melanoma = system: SK-MEL-28 melanoma
SK-OV-3 ovarian = system: SK-OV-3 ovarian
SN12C renal = system: SN12C renal
SNB-19 CNS = system: SNB-19 CNS
SNB-75 CNS = system: SNB-75 CNS
SR leukemia = system: SR leukemia
SW-620 colon = system: SW-620 colon
T-47D breast = system: T-47D breast
TK-10 renal = system: TK-10 renal
U251 CNS = system: U251 CNS
UACC-257 melanoma = system: UACC-257 melanoma
UACC-62 melanoma = system: UACC-62 melanoma
UO-31 renal = system: UO-31 renal
CCRF-CEM leukemia = system: CCRF-CEM leukemia
HL-60(TB) leukemia = system: HL-60(TB) leukemia
HOP-92 NSCLC = system: HOP-92 NSCLC
HT29 colon = system: HT29 colon
IGROV1 ovarian = system: IGROV1 ovarian
SF-539 CNS = system: SF-539 CNS
SK-MEL-5 melanoma = system: SK-MEL-5 melanoma

**Q.** Which results are given for `COc1cc2ccnc3c2c(c1OC)N(C)C=C3`?
**A.** TGI (786-0 renal): 53.6 µM; TGI (A498 renal): > 100 µM; TGI (A549 NSCLC): 41 µM; TGI (ACHN renal): 46.4 µM; TGI (BT-549 breast): 87.8 µM; TGI (CAKI-1 renal): 44.8 µM; TGI (COLO 205 colon): 96.3 µM; TGI (DU-145 prostate): > 100 µM; TGI (EKVX NSCLC): 61.6 µM; TGI (HCC-2998 colon): 33.8 µM; TGI (HCT-116 colon): 37.9 µM; TGI (HCT-15 colon): > 100 µM; TGI (HOP-62 NSCLC): > 100 µM; TGI (HS 578T breast): > 100 µM; TGI (K-562 leukemia): 65.5 µM; TGI (KM12 colon): > 100 µM; TGI (LOX IMVI melanoma): 50.4 µM; TGI (M14 melanoma): 68.8 µM; TGI (MCF7 breast): 44.6 µM; TGI (MDA-MB-231 breast): 80.6 µM; TGI (MDA-MB-435): 80.4 µM; TGI (MDA-N): 36.1 µM; TGI (MOLT-4 leukemia): > 100 µM; TGI (NCI-H226 lung): 54.1 µM; TGI (NCI-H23 lung): 47 µM; TGI (NCI-H460 lung): 29 µM; TGI (NCI/ADR-RES ovarian): 76.4 µM; TGI (OVCAR-3 ovarian): > 100 µM; TGI (OVCAR-4 ovarian): 71.2 µM; TGI (OVCAR-5 ovarian): > 100 µM; TGI (OVCAR-8 ovarian): > 100 µM; TGI (PC-3 prostate): > 100 µM; TGI (RPMI-8226 leukemia): 82.2 µM; TGI (RXF 393 renal): 68.6 µM; TGI (SF-268 CNS): > 100 µM; TGI (SF-295 CNS): 78.3 µM; TGI (SK-MEL-2 melanoma): 57.6 µM; TGI (SK-MEL-28 melanoma): > 100 µM; TGI (SK-OV-3 ovarian): 79.3 µM; TGI (SN12C renal): > 100 µM; TGI (SNB-19 CNS): 75.9 µM; TGI (SNB-75 CNS): > 100 µM; TGI (SR leukemia): 64.9 µM; TGI (SW-620 colon): > 100 µM; TGI (T-47D breast): > 100 µM; TGI (TK-10 renal): > 100 µM; TGI (U251 CNS): > 100 µM; TGI (UACC-257 melanoma): > 100 µM; TGI (UACC-62 melanoma): 80.3 µM; TGI (UO-31 renal): 33.1 µM

**Q.** `O=C1/C(=C/Cc2ccco2)N=C(c2ccccc2)N1c1nc2ccc(Sc3ccccc3)cc2[nH]1` was tested. Which TGI (786-0 renal) did it give?
**A.** 38.5 µM

**Q.** What about the TGI (A498 renal) of the same compound?
**A.** 30.7 µM

**Q.** And the TGI (A549 NSCLC)?
**A.** > 100 µM

**Q.** And the TGI (ACHN renal)?
**A.** 44.9 µM

**Q.** What about the TGI (BT-549 breast) of the same compound?
**A.** 57.7 µM

**Q.** And the TGI (CAKI-1 renal)?
**A.** > 100 µM

**Q.** What about the TGI (CCRF-CEM leukemia) of the same compound?
**A.** 44.2 µM

**Q.** What about the TGI (COLO 205 colon) of the same compound?
**A.** 36 µM

**Q.** What about the TGI (DU-145 prostate) of the same compound?
**A.** 70.5 µM

**Q.** What about the TGI (EKVX NSCLC) of the same compound?
**A.** > 100 µM

**Q.** What about the TGI (HCC-2998 colon) of the same compound?
**A.** 40.6 µM

**Q.** What about the TGI (HCT-116 colon) of the same compound?
**A.** 40.7 µM

**Q.** And the TGI (HCT-15 colon)?
**A.** > 100 µM

**Q.** What about the TGI (HL-60(TB) leukemia) of the same compound?
**A.** 45.4 µM

**Q.** What about the TGI (HOP-62 NSCLC) of the same compound?
**A.** > 100 µM

**Q.** What about the TGI (HOP-92 NSCLC) of the same compound?
**A.** 67.6 µM

**Q.** And the TGI (HS 578T breast)?
**A.** 50.7 µM

**Q.** What about the TGI (HT29 colon) of the same compound?
**A.** 73.6 µM

**Q.** What about the TGI (IGROV1 ovarian) of the same compound?
**A.** > 100 µM

**Q.** What about the TGI (K-562 leukemia) of the same compound?
**A.** > 100 µM

**Q.** What about the TGI (KM12 colon) of the same compound?
**A.** 45.5 µM

**Q.** And the TGI (LOX IMVI melanoma)?
**A.** 43.7 µM

**Q.** And the TGI (M14 melanoma)?
**A.** 42.5 µM

**Q.** What about the TGI (MCF7 breast) of the same compound?
**A.** 49.2 µM

**Q.** What about the TGI (MDA-MB-231 breast) of the same compound?
**A.** 57 µM

**Q.** What about the TGI (MDA-MB-435) of the same compound?
**A.** 23.5 µM

**Q.** And the TGI (MDA-N)?
**A.** 25 µM

**Q.** What about the TGI (MOLT-4 leukemia) of the same compound?
**A.** 92.9 µM

**Q.** What about the TGI (NCI-H460 lung) of the same compound?
**A.** > 100 µM

**Q.** And the TGI (NCI/ADR-RES ovarian)?
**A.** 72.4 µM

**Q.** What about the TGI (OVCAR-3 ovarian) of the same compound?
**A.** 84.8 µM

**Q.** And the TGI (OVCAR-4 ovarian)?
**A.** 86.3 µM

**Q.** What about the TGI (OVCAR-5 ovarian) of the same compound?
**A.** 96.9 µM

**Q.** And the TGI (OVCAR-8 ovarian)?
**A.** 62.6 µM

**Q.** And the TGI (PC-3 prostate)?
**A.** 53.6 µM

**Q.** What about the TGI (RPMI-8226 leukemia) of the same compound?
**A.** > 100 µM

**Q.** What about the TGI (RXF 393 renal) of the same compound?
**A.** 36.1 µM

**Q.** And the TGI (SF-268 CNS)?
**A.** 58.1 µM

**Q.** What about the TGI (SF-295 CNS) of the same compound?
**A.** > 100 µM

**Q.** What about the TGI (SF-539 CNS) of the same compound?
**A.** > 100 µM

**Q.** What about the TGI (SK-MEL-2 melanoma) of the same compound?
**A.** 34.8 µM

**Q.** What about the TGI (SK-MEL-28 melanoma) of the same compound?
**A.** 85 µM

**Q.** What about the TGI (SK-MEL-5 melanoma) of the same compound?
**A.** 31.8 µM

**Q.** And the TGI (SK-OV-3 ovarian)?
**A.** 84.6 µM

**Q.** What about the TGI (SN12C renal) of the same compound?
**A.** 34.9 µM

**Q.** What about the TGI (SNB-19 CNS) of the same compound?
**A.** 86.7 µM

**Q.** And the TGI (SNB-75 CNS)?
**A.** 75.7 µM

**Q.** What about the TGI (SR leukemia) of the same compound?
**A.** 54.6 µM

**Q.** What about the TGI (SW-620 colon) of the same compound?
**A.** > 100 µM

**Q.** And the TGI (T-47D breast)?
**A.** > 100 µM

**Q.** What about the TGI (TK-10 renal) of the same compound?
**A.** > 100 µM

**Q.** And the TGI (U251 CNS)?
**A.** 43.9 µM

**Q.** And the TGI (UACC-257 melanoma)?
**A.** 57.5 µM

**Q.** And the TGI (UACC-62 melanoma)?
**A.** 83.1 µM

**Q.** And the TGI (UO-31 renal)?
**A.** 50.6 µM

Source: PubChem BioAssay (NCI)
